Results on six compounds are retold here after US10358463B2, “Immunomodulators” (BRISTOL-MYERS SQUIBB COMPANY, priority 2016, dated 2019).

In the test the target is T1, PD-1-Ig binding to PD-L1-TVMV-His (PD-L1-His) (Homo sapiens, UniProt Q9NZQ7).
T1 construct: hPDL1 (19-239)-TVMV-His; TVMV protease cleavage site (C); made in house; host or cells: HEK293T cells
Kind of test: PD-1/PD-L1 Homogenous Time-Resolved Fluorescence (HTRF) binding assay. The following applies: PD-1-Ig (20 nM)/PD-L1-His (10 nM). The text has this:
The ability of the macrocyclic peptides of the present disclosure to bind to PD-L1 was investigated using a PD-1/PD-L1 Homogenous Time-Resolved Fluorescence (HTRF) binding assay.
Homogenous Time-Resolved Fluorescence (HTRF) Assays of Binding of Soluble PD-1 to Soluble PD-L1. Soluble PD-1 and soluble PD-L1 refers to proteins with carboxyl-end truncations that remove the transmembrane-spanning regions and are fused to heterologous sequences, specifically the Fc portion of the human immunoglobuling G sequence (Ig) or the hexahistidine epitope tag (His). All binding studies were performed in an HTRF assay buffer consisting of dPBS supplemented with 0.1% (w/v) bovine serum albumin and 0.05% (v/v) Tween-20. For the PD-1-Ig/PD-L1-His binding assay, inhibitors were pre-incubated with PD-L1-His (10 nM final) for 15 m in 4 μl of assay buffer, followed by addition of PD-1-Ig (20 nM final) in 1 μl of assay buffer and further incubation for 15 m. PD-L1 fusion proteins from either human, cynomologous macaques, mouse, or other species were used. HTRF detection was achieved using europium crypate-labeled anti-Ig monoclonal antibody (1 nM final) and allophycocyanin (APC) labeled anti-His monoclonal antibody (20 nM final). Antibodies were diluted in HTRF detection buffer and 5 μl was dispensed on top of binding reaction. The reaction was allowed to equilibrate for 30 minutes and signal (665 nm/620 nm ratio) was obtained using an EnVision fluorometer. Additional binding assays were established between PD-1-Ig/PD-L2-His (20 and 5 nM, respectively), CD80-His/PD-L1-Ig (100 and 10 nM, respectively) and CD80-His/CTLA4-Ig (10 and 5 nM, respectively). Binding/competition studies between biotinylated Compound No. 71 and human PD-L1-His were performed as follows. Macrocyclic peptide inhibitors were pre-incubated with PD-L1-His (10 nM final) for 60 minutes in 4 μl of assay buffer followed by addition of biotinylated Compound No. 71 (0.5 nM final) in 1 μl of assay buffer. Binding was allowed to equilibrate for 30 minutes followed by addition of europium crylated labeled Streptavidin (2.5 pM final) and APC-labeled anti-His (20 nM final) in 5 μl of HTRF buffer. The reaction was allowed to equilibrate for 30 m and signal (665 nm/620 nm ratio) was obtained using an EnVision fluorometer.
Recombinant Proteins. Carboxyl-truncated human PD-1 (amino acids 25-167) with a C-terminal human Ig epitope tag [hPD-1 (25-167)-3S-IG] and human PD-L1 (amino acids 18-239) with a C-terminal His epitope tag [hPD-L1(19-239)-tobacco vein mottling virus protease cleavage site (TVMV)-His] were expressed in HEK293T cells and purified sequentially by recombinant Protein A affinity chromatography and size exclusion chromatography. Human PD-L2-His (Sino Biologicals), CD80-His (Sino Biologicals), CTLA4-Ig (RnD Systems) were all obtained through commercial sources.

The structures appear in SMILES notation. Numbered stars: 1 amine (or outer) side, 2 acyl side, 3 side chain; on linkers, the order of the positions; unused ones are H or OH. Bridge positions count the residues as written; N and C are the ends. Square brackets hold non-standard residues; d marks the D form. Peptide text beside a SMILES is read from it. Trp(1-CH2CONHSO2Me) = CS(=O)(=O)NC(=O)Cn1cc(C[C@H](N)C(=O)O)c2ccccc21; X6 = O=C([C@H](Cc1ccc2cnccc2c1)N[*:1])[*:2]; Phe(4-Cl) = N[C@@H](Cc1ccc(Cl)cc1)C(=O)O; Phe(4-F) = N[C@@H](Cc1ccc(F)cc1)C(=O)O; Hyp = O=C(O)[C@@H]1C[C@@H](O)CN1; NMeNle = CCCC[C@H](NC)C(=O)O; Pen = CC(C)(S)[C@H](N)C(=O)O; Pip = O=C(O)[C@@H]1CCCCN1; NMeA = CN[C@@H](C)C(=O)O; Dab = NCC[C@H](N)C(=O)O; Dap = NC[C@H](N)C(=O)O

T1 sequence (Q9NZQ7 with tags, fused parts or gaps): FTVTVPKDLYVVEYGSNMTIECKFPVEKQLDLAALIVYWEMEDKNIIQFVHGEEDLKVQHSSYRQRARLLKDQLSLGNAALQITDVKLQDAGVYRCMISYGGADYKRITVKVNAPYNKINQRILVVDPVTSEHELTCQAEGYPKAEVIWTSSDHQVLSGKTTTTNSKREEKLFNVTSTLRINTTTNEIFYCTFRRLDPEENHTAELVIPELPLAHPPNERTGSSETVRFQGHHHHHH

Consider `CCCC[C@H]1C(=O)N(C)[C@@H](CCCC)C(=O)N[C@@H](CCCNC(=N)N)C(=O)N[C@H](C(=O)NCC(N)=O)CSCC(=O)N[C@@H](Cc2ccc(O)cc2)C(=O)N(C)[C@@H](C)C(=O)N[C@@H](CC(N)=O)C(=O)N2CCC[C@H]2C(=O)N[C@@H](Cc2cnc[nH]2)C(=O)N[C@@H](CC(C)C)C(=O)N2C[C@H](O)C[C@H]2C(=O)N[C@@H](Cc2c[nH]c3ccccc23)C(=O)N[C@@H](CO)C(=O)N[C@@H](Cc2ccc3cnccc3c2)C(=O)N1C` [Example 0001] ({CH2CO}-Y[NMeA]NPHL[Hyp]WS[X6][NMeNle][NMeNle]RCG-NH2; thioether N-14), for which the IC50 (range class) fell in the range of 100 to 990 nM.

Under “numeric value”, `CCCC[C@H]1C(=O)N(C)[C@@H](CCCC)C(=O)N[C@@H](CC(C)C)C(=O)N[C@H](C(=O)NCC(N)=O)CSCC(=O)N[C@@H](Cc2ccc(O)cc2)C(=O)N(C)[C@@H](C)C(=O)N[C@@H](CC(N)=O)C(=O)N2CCC[C@H]2C(=O)N[C@@H](CN)C(=O)N[C@@H](CC(C)C)C(=O)N2C[C@H](O)C[C@H]2C(=O)N[C@@H](Cc2c[nH]c3ccccc23)C(=O)N[C@@H](CCN)C(=O)N[C@@H](Cc2cn(CC(=O)NS(C)(=O)=O)c3ccccc23)C(=O)N1C` [Example 1001] ({CH2CO}-Y[NMeA]NP[Dap]L[Hyp]W[Dab][Trp(1-CH2CONHSO2Me)][NMeNle][NMeNle]LCG-NH2; thioether N-14) came in with an IC50 of 4 nM.

For `CCCC[C@H]1C(=O)N(C)[C@@H](CCCC)C(=O)N[C@@H](CC(C)C)C(=O)N[C@H](C(=O)NCC(N)=O)CSCC(=O)N[C@@H](Cc2ccc(O)cc2)C(=O)N(C)[C@@H](C)C(=O)N[C@@H](CC(=O)O)C(=O)N2CCC[C@H]2C(=O)N[C@@H](Cc2cnc[nH]2)C(=O)N[C@@H](CCCCN)C(=O)N2C[C@H](O)C[C@H]2C(=O)N[C@@H](Cc2c[nH]c3ccccc23)C(=O)N[C@@H](CCCCN)C(=O)N[C@@H](Cc2cn(Cc3nnn[nH]3)c3ccccc23)C(=O)N1C` [Example 1002], the IC50 (range class) is 1 to 9.9 nM.

Compound `CCCC[C@H]1C(=O)N(C)[C@@H](CCCC)C(=O)N[C@@H](CC(C)C)C(=O)N[C@H](C(N)=O)C(C)(C)SCC(=O)N[C@@H](Cc2ccc(F)cc2)C(=O)N2CCCC[C@H]2C(=O)N[C@@H](CC(=O)O)C(=O)N2CCC[C@H]2C(=O)N[C@@H](CN)C(=O)N[C@@H](CCC(=O)O)C(=O)N2C[C@H](O)C[C@H]2C(=O)N[C@@H](Cc2c[nH]c3ccccc23)C(=O)N[C@@H](CCN)C(=O)N[C@@H](Cc2cn(CC(=O)NS(C)(=O)=O)c3ccccc23)C(=O)N1C` [Example 1003] ({CH2CO}-[Phe(4-F)][Pip]DP[Dap]E[Hyp]W[Dab][Trp(1-CH2CONHSO2Me)][NMeNle][NMeNle]L[Pen]-NH2; thioether N-14) displayed an IC50 (range class) of 1 to 9.9 nM.

For `CCCC[C@H]1C(=O)N(C)[C@@H](CCCC)C(=O)N[C@@H](CC(C)C)C(=O)N[C@H](C(N)=O)C(C)(C)SCC(=O)N[C@@H](Cc2ccc(OC)cc2)C(=O)N2CCCC[C@H]2C(=O)N[C@@H](CC(=O)O)C(=O)N2CCC[C@H]2C(=O)N[C@@H](CN)C(=O)N[C@@H](CCC(=O)O)C(=O)N2C[C@H](O)C[C@H]2C(=O)N[C@@H](Cc2c[nH]c3ccccc23)C(=O)N[C@@H](CCN)C(=O)N[C@@H](Cc2cn(CC(=O)NS(C)(=O)=O)c3ccccc23)C(=O)N1C` [Example 1004] ({CH2CO}-Y(Me)[Pip]DP[Dap]E[Hyp]W[Dab][Trp(1-CH2CONHSO2Me)][NMeNle][NMeNle]L[Pen]-NH2; thioether N-14), the 50% inhibitory concentration (IC50) (range class) lay within 1 to 9.9 nM.

Where the note is “range class”, `CCCC[C@H]1C(=O)N(C)[C@@H](CCCC)C(=O)N[C@@H](CC(C)C)C(=O)N[C@H](C(N)=O)C(C)(C)SCC(=O)N[C@@H](Cc2ccc(Cl)cc2)C(=O)N2CCCC[C@H]2C(=O)N[C@@H](CC(=O)O)C(=O)N2CCC[C@H]2C(=O)N[C@@H](CN)C(=O)N[C@@H](CCC(=O)O)C(=O)N2C[C@H](O)C[C@H]2C(=O)N[C@@H](Cc2c[nH]c3ccccc23)C(=O)N[C@@H](CCN)C(=O)N[C@@H](Cc2cn(CC(=O)NS(C)(=O)=O)c3ccccc23)C(=O)N1C` [Example 1005] ({CH2CO}-[Phe(4-Cl)][Pip]DP[Dap]E[Hyp]W[Dab][Trp(1-CH2CONHSO2Me)][NMeNle][NMeNle]L[Pen]-NH2; thioether N-14) came in with an IC50 of 1 to 9.9 nM.

In general, IC50 refers to the concentration needed to halve the response being measured.
